This note sets out measurements from ChEMBL document CHEMBL5042526, “Design, Synthesis, and Biological Evaluation of Triazolone Derivatives as Potent PPARα/δ Dual Agonists for the Treatment of Nonalcoholic Steatohepatitis” (J Med Chem, 2022).

SMILES strings stand for the structures.

Data set [1] is described as follows: Microsomal stability in human liver microsomes assessed as terminal elimination half life at 1 uM measured upto 60 mins by LC-MS/MS-11 analysis. Format: ADME, Microsome. A general note: Liver microsomes are vesicles of endoplasmic reticulum, rich in cytochrome P450 enzymes.
For data set [2], the target named is T1, Peroxisome proliferator-activated receptor alpha (Homo sapiens) (UniProt Q07869).
T1 sequence (whole entry): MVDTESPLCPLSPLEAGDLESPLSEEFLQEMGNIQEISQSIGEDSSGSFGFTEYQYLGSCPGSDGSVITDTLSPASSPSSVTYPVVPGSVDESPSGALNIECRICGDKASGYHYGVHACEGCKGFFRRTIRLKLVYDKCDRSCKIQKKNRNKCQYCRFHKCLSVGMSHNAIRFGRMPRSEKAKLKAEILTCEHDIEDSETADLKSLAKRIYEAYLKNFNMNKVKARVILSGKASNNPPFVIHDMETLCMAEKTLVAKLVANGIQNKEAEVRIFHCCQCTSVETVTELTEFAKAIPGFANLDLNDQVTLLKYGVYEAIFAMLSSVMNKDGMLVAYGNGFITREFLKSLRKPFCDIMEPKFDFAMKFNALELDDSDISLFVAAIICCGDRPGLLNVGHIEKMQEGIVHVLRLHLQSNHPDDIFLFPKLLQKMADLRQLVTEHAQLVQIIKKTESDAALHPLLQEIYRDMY
Description: Agonist activity at PPARalpha (unknown origin) assessed as maximal activation at 10 nM relative to control. Particulars: filed as agonist.

Data set [3] deals with T2, Peroxisome proliferator-activated receptor delta (Homo sapiens) (UniProt Q03181).
T2 sequence (whole entry): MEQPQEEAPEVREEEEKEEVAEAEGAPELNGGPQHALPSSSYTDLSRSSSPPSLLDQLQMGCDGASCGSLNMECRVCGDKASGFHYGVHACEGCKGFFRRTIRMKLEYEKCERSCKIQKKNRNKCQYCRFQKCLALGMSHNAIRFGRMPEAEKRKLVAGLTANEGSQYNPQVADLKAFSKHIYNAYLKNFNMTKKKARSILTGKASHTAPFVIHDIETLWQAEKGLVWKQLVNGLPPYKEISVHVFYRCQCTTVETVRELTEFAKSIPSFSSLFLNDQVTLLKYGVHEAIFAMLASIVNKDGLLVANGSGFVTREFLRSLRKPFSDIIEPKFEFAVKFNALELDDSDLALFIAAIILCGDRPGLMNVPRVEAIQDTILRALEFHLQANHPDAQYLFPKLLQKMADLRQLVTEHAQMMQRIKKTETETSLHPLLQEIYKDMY
The data set is described as follows: Agonist activity at PPARdelta (unknown origin) assessed as maximal activation at 10 nM relative to control. Particulars: filed as agonist.

Data set [4] deals with T3, Peroxisome proliferator-activated receptor gamma (Homo sapiens) (UniProt P37231).
T3 sequence (whole entry): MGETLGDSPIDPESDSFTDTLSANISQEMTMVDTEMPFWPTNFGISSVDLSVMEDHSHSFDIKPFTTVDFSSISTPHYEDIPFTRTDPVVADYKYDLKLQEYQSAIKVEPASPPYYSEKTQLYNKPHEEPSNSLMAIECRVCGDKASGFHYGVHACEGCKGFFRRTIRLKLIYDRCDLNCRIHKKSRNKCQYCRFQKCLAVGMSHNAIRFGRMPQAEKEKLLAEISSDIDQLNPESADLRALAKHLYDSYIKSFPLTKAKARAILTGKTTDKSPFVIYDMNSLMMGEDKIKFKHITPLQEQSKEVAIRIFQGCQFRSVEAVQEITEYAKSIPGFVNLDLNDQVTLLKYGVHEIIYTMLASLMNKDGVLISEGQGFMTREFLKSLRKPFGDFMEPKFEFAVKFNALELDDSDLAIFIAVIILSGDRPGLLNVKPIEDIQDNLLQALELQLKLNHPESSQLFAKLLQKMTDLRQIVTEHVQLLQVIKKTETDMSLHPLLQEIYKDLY
The data set is described as follows: Agonist activity at PPARgamma (unknown origin) assessed as maximal activation at 10 nM relative to control. Particulars: filed as agonist.

The nature of data set [5]: Intrinsic clearance in human liver microsomes at 1 uM measured upto 60 mins by LC-MS/MS-11 analysis. As to conditions: read-out: CLH. Format: ADME, Microsome.
For data set [6], the target named is T4, Peroxisome proliferator-activated receptor delta (Homo sapiens, UniProt Q03181).
T4 sequence (Q03181 whole entry): T2 sequence (whole entry)
The data set is described as follows: Agonist activity at PPARdelta (unknown origin).

Data set [7] deals with T5, Peroxisome proliferator-activated receptor alpha (Homo sapiens, UniProt Q07869).
T5 sequence (Q07869 whole entry): T1 sequence (whole entry)
The data set is described as follows: Agonist activity at PPARalpha (unknown origin).

Data set [8] deals with T6, Peroxisome proliferator-activated receptor gamma (Homo sapiens, UniProt P37231).
T6 sequence (P37231 whole entry): T3 sequence (whole entry)
The data set is described as follows: Agonist activity at PPARgamma (unknown origin).

Regarding `CSc1ccc(C(=O)/C=C/c2cc(C)c(OC(C)(C)C(=O)O)c(C)c2)cc1` [ELAFIBRANOR], in data set [1], the half-life at 1 µM is > 2 h. Moreover, the Emax in data set [2] was found to be 82%; in data set [3] it was 52%; in data set [4] it was 115%. Moreover, in data set [5], the CLint scaled at 1 µM is 116 mL/min/kg.

Regarding `Cc1cc(Cc2cc(-c3ccc(Br)cc3)on2)cc(C)c1OC(C)(C)C(=O)O`, the EC50 in data set [6] amounted to 24.2 nM; in data set [7] it was 65.1 nM; in data set [8], 2750 nM. The Emax in data set [2] was found to be 135%; in data set [3] it was 75%; in data set [4], 118%.

As usually defined, the half-life is the time in which the quantity being followed falls by half. Usually EC50 stands for the concentration at which the effect is half-maximal. Higher therefore signals a need for much substance.
